Experiment [1] deals with HAase (from bovine testis). Nature of the experiment: HAase-mediated degradation of immobilized biotinylated HA. It is filed as biochemical. To be noted: 500 μg/ml pretreatment. The protocol: (§1) FIGS. 5A-C. Impact of Pep-1 on HA degradation products. (FIG. 5A) 96 well plates were coated with biotinylated-HA (0.1 μg/ml) and pretreated with 500 μg/ml of Pep-1 (open circles), RP (closed circles), or PBS alone (triangles) for 3 hours. These plates were then incubated for 30 min in the presence of HAase (from bovine testis). After extensive wash, the amounts of remaining biotinylated HA on the plates were determined by addition of streptavidin-alkaline phosphatase followed by p-nitrophenyl phosphate substrate. The % HA digestion was calculated from the optical densities. The data shown are the means+/−s.e.m.from triplicate samples analyzed with a hyperbolic model. (FIG. 5B) The impact of Pep-1 on HA digestion and on cell adhesion was examined in parallel using the HA-coated plates prepared simultaneously. Pep-1, RP, or PBS alone was added to the HA-coated plates as above and their effects on HAase-mediated HA degradation and on the adhesion of ^35S-labeled BW5147 thymoma cells were compared. […] Results are expressed as the means+/−s.e.m.from triplicate samples.
To test the impact of Pep-1 on HA degradation, the present inventors developed a 96 well-based assay in which biotinylated HA was immobilized onto the plates and treated with HAase. The amounts of HA that remained attached to the wells was then determined by addition of streptavidin-conjugated alkaline phosphatase (FIG. 5A).

The next experiment relates to XS52 DC. As to the kind of experiment: Cytokine secretion by XS52 DC stimulated with HA fragments (ELISA). It is filed as cell-based. To be noted: 500 μg/ml; HA fragments 50 μg/ml. The protocol:
as §1, with “compared. The data shown are the means+/−s.e.m.(n=3) of 50% inhibition doses of HAase (left) and % cell adhesion (right). […] (FIG. 5C) Low molecular weight HA fragments were prepared by sonication of HMW HA followed by overnight digestion with HAase at 37° C.” for “compared.”, “samples. […]” for “samples.”
In general terms: In an ELISA, binding on a coated surface is turned into a signal by an enzyme label.

The next experiment concerns Langerhans cells (LC). As to the kind of experiment: Hapten (DNFB)-triggered LC emigration from the epidermis. It is filed as in vivo, BALB/c mice. Conditions: two local injections before DNFB. The protocol:
FIG. 3. Impact of multimeric Pep-1 derivatives on hapten-induced LC migration. BALB/c mice received two local injections of the indicated Pep-1 derivatives in the right ear (closed circles) and the indicated RP derivatives in the left ear 24 and 3 hours before topical application of 0.5% DNFB on both ears. All the peptides were administered at the identical dose in terms of the molarity ([…]) of the 16-mer Pep-1 peptide sequence, i.e., 40 μg/injection/ear for monomeric Pep-1 and RP, […] for dimeric Pep-1 and RP, or 160 μg/injection/ear for PEG-conjugated tetrameric Pep-1 and RP. Ear skin samples were harvested at the indicated time points after DNFB painting and examined for surface densities of IA^+ LC. Data shown are the means+/−s.e.m.(n=3) of % LC emigration as calculated by dividing from the formula: [(LC number before DNFB application−LC number after DNFB application)/LC number before DNFB application]×100. Asterisks indicate statistically significant differences between the Pep-1 and the RP panels (**p<0.01 by two-tailed Student's t-test).
Pep-1 and its dimeric and tetrameric derivatives were compared for their in vivo activities to prevent hapten-triggered LC emigration from the epidermis.

For another experiment, the system named is B16-F10 melanoma cells. Nature of the experiment: Local growth of s.c. inoculated B16-F10 melanoma. It is filed as in vivo, C57BL/6 mice. Conditions: 40 μg/injection locally, days 0, 3, 6; measured day 10. The procedure:
FIGS. 4A-C. Impact of Pep-1 on lung metastasis of melanoma. (FIG. 4A) B16-F10 melanoma cells were suspended (4×10^5 cells/ml) in PBS containing Pep-1 monomer (2 or 3 mg/ml) (circles) or 2% DMSO alone (triangles). C57BL/6 mice received i.v. injection of these cell suspensions (500 μl/animal) and were examined for survival. Data shown are the cumulative survival curves from four independent experiments (n=37 for Pep-1 and n=20 for PBS control). […] (FIG. 4B) B16-F10 melanoma cells (1×10^5 cells/animal) were s.c. injected into the back of C57BL/6 mice. Pep-1 or RP (40 μg/injection) was injected locally into the tumor inoculation sites 0. 3. and 6 days after tumor injection. Data shown are the means+/−s.e.m. (n=10) of tumor sizes and tumor weights measured 10 days after tumor inoculation. (FIG. 4C) B16-F10 melanoma cells (2×10^5 cells/well) were cultured in the presence of the indicated concentrations of Pep-1 (closed circles) or PR (open circles). Data shown are the means+/−s.e.m.(n=3) of ^3H-thymidine uptake at 24 hr.

From patent US6852696B2, “Inhibitors of glycosaminoglycans” (The University of Texas System, priority 1999, dated 2005) come the findings set out here.

In the case of GAHWQFNALTVR [Pep-1], the “effect on HAase-mediated HA degradation” value in experiment [1] is “failed to affect the degradation of HA substrates”. Also, in the experiment with XS52 DC, the “inhibition of IL-6 secretion triggered by HA fragments” value is listed as “inhibited the secretion of both cytokines almost completely”. Further, the “inhibition of TNFα secretion triggered by HA fragments” value in the experiment on XS52 DC is recorded as “inhibited the secretion of both cytokines almost completely”. The “inhibition of LC emigration” value in the experiment with Langerhans cells (LC) (24 hr after DNFB application) is recorded as “inhibited LC emigration almost completely”; in the experiment with Langerhans cells (LC) (48 hr after DNFB application), “kinetics comparable to those observed in the control group receiving random peptide (RP) injections”; in the experiment with Langerhans cells (LC) (72 hr after DNFB application), “kinetics comparable to those observed in the control group receiving random peptide (RP) injections”. Also, the “effect on local growth in animals following s.c. inoculation” value in the experiment with B16-F10 melanoma cells is recorded as “no apparent effects”.
